The source of these data is patent US11040026B2, “Muscarinic M1 receptor positive allosteric modulators” (SUVEN LIFE SCIENCES LIMITED, priority 2016, dated 2021).

Series [1] can be described thus: Rodent pharmacokinetic study. Format: in vivo, Male Wistar rats. The settings on record: rat; for AUC(0-t) / clearance / half-life / Cmax: male, Wistar, plasma; for F: oral (gavage) 3 mg/kg vs intravenous 1 mg/kg. As to the method: Rodent Pharmacokinetic Study
Male Wistar rats (260±50 grams) were used as experimental animals. Animals were housed individually in polypropylene cage. Two days prior to study, male Wistar rats were anesthetized with isoflurane for surgical placement of jugular vein catheter. Rats were randomly divided for oral (3 mg/kg) and intravenous (1 mg/kg) dosing (n=3/group) and fasted overnight before oral dosing (p.o.). However, rats allocated to intravenous dosing food and water was provided ad libitum.
At pre-determined point, blood was collected through jugular vein and replenished with an equivalent volume of normal saline. Collected blood was transferred into a labeled eppendorf tube containing 10 μL of heparin as an anticoagulant. Typically blood samples were collected at following time points: 0.08, 0.25, 0.5, 1, 2, 4, 6, 8, and 24 hours post dose. Blood was centrifuged at 4000 rpm for 10 minutes. Plasma was separated and stored frozen at −80° C. until analysis. The concentrations of the test compounds were quantified in plasma by qualified LC-MS/MS method using suitable extraction technique. The test compounds were quantified in the calibration range around 1-1000 ng/mL in plasma. Study samples were analyzed using calibration samples in the batch and quality control samples spread across the batch.
Pharmacokinetic parameters Cmax, AUCt, T1/2, Clearance and Bioavailability (F) were calculated by non-compartmental model using standard non-compartmental model by using Phoenix WinNonlin 6.0.4 version Software package.

Series [2] has as its target T1, muscarinic M1 receptor (Homo sapiens, UniProt P11229).
T1 sequence (P11229 1-460): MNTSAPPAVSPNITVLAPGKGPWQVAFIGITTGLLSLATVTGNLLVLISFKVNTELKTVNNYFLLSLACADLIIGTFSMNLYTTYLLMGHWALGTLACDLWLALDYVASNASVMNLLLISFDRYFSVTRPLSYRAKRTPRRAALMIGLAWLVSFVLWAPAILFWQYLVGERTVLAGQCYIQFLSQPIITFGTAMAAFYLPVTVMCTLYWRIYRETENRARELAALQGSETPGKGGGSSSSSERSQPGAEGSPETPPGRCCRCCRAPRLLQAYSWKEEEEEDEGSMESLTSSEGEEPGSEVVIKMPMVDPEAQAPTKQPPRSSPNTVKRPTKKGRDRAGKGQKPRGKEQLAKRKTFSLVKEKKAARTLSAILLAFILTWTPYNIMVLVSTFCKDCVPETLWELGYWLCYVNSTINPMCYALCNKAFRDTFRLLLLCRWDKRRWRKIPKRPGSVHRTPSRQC
Description: Allosteric potency EC50 for muscarinic M1 receptor (CHO pCRE-Luc reporter assay). Format: cell-based. The settings on record: in presence of EC20 of acetylcholine; CHO cells, luciferase reporter, 4 hours. In outline:
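Stable CHO line with recombinant human M1 and cAMP-response-element luciferase reporter, serum-starved overnight. Test compounds at increasing concentrations added with an EC20 of acetylcholine, 4 h at 37 °C; luminescence read after lysis. EC50 = concentration giving 50% stimulation of luciferase activity in the presence of EC20 acetylcholine.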

Series [3] can be described thus: Rodent brain penetration study. Format: in vivo, Male Wistar rats. The settings on record: male, Wistar, brain and plasma, po; rat, 3 mg/kg, p.o., brain-plasma ratio; read-out: Single dose Rat Brain Penetration (Cb/Cp) at 3 mg/kg, p.o. As to the method:
Rodent Brain Penetration Study
Male Wistar rats (260±40 grams) were used as experimental animals. Three animals were housed in each cage. Animals were given water and food ad libitum throughout the experiment and maintained on a 12 hours light/dark cycle.
Brain penetration was determined in discrete manner in rats. One day prior to dosing day, male Wistar rats were acclimatized and randomly grouped according to their weight. At each time point (0.50, 1 and 2 hours) n=3 animals were used.
The test compounds were suitably preformulated and administered orally at (free base equivalent) 3 mg/kg. Blood samples were removed via cardiac puncture by using isoflurane anesthesia. The animals were sacrificed to collect brain tissue. Plasma was separated and brain samples were homogenized and stored frozen at −20° C. until analysis. The concentrations of the test compounds in plasma and brain were determined using LC-MS/MS method.
The test compounds were quantified in plasma and brain homogenate by qualified LC-MS/MS method using suitable extraction technique. The test compounds were quantified in the calibration range of 1-500 ng/mL in plasma and brain homogenate. Study samples were analyzed using calibration samples in the batch and quality control samples spread across the batch. Extent of brain-plasma ratio (Cb/Cp) was calculated

Series [4] deals with Male Wistar rats. As to the kind of experiment: Object recognition task model. Format: in vivo. The settings on record: rat, p.o.; for Exploration time mean ± S.E.M, Familiar object / Exploration time mean ± S.E.M, Novel object: choice trial 24 hours after T1. As to the method: Object Recognition Task Model
Male Wistar rats (8-10 weeks old) were used as experimental animals. Four animals were housed in each cage. Animals were kept on 20% food deprivation from a day prior to experimentation. Water was provided ad libitum throughout the experiment. Animals were maintained on a 12 hours light/dark cycle in temperature and humidity controlled room. The experiment was carried out in an circular or square arena made up of acrylic. Rats were habituated to individual arenas for up to 1 hour in the absence of any objects on day 1.
One group of 12 rats received vehicle and another set of animals received test compounds, before familiar (T1) and choice (T2) trials. During the familiarization phase, (T1), the rats were placed individually in the arena for 3 minutes, in which two identical objects (a1 and a2) were positioned 10 cm from the wall. 24 hours after T1, trial for long-term memory test was performed. The same rats were placed in the same arena as they were placed in T1 trial. During the choice phase (T2) rats were allowed to explore the arena for 3 minutes in presence of a copy of familiar object (a3) and one novel object (b). During the T1 and T2 trial, explorations of each object (defined as sniffing, licking, chewing or having moving vibrissae whilst directing the nose towards the object at a distance of less than 1 cm) were recorded using stopwatch.
T1 is the total time spent exploring the familiar objects (a1+a2).
T2 is the total time spent exploring the familiar object and novel object (a3+b).
The object recognition test was performed as described in Behav. Brain Res., 1988, 31, 47-59.

Series [5] relates to Male Wistar rats. Description: Object recognition task model (combination study). The settings on record: rat, combination (co-treatment) with donepezil; FIG. 1. Format: in vivo. As to the method:
Object Recognition Task Model (Combination Study)
The cognition enhancing properties of compounds of this invention were estimated by using this model.
Male Wistar rats (8-10 weeks old) were used as experimental animals. Four animals were housed in each cage. Animals were kept on 20% food deprivation from a day prior to experimentation. Water was provided ad libitum throughout the experiment. Animals were maintained on a 12 hours light/dark cycle in temperature and humidity controlled room. The experiment was carried out in an open field made up of acrylic. Rats were habituated to individual arenas (open field) for 20 minutes in the absence of any objects on day 1.
One group of 12 rats received vehicle and another set of animals received compound of the formula (I) or Donepezil or compound of formula (I) and Donepezil, before the familiar (T1) and choice (T2) trials. During the familiarization phase, (T1), the rats were placed individually in the arena for 3 minutes, in which two identical objects (a1 and a2) were positioned 10 cm from the wall. 24 hours after T1, trial for long-term memory test was performed. […] During the T1 and T2 trial, explorations of each object (defined as sniffing, licking, chewing or having moving vibrissae whilst directing the nose towards the object at a distance of less than 1 cm) were recorded using stopwatch. […]

For series [6] the following is noted: cited from earlier work.
For series [7], the target named is T1, muscarinic M1 receptor. The settings on record: literature report; cited from earlier work.

Molecules are shown by their SMILES.

What is called AUC(0-t) is exposure summed from dosing to a finite time, without extrapolation to infinity. A lower AUC(0-t) goes with less exposure. As a reminder, the clearance is a measure of how efficiently the substance is removed, as volume per time. As usually defined, the half-life is the time in which the quantity being followed falls by half. As usually defined, the Cmax is the peak of the concentration-time curve. For orientation: EC50 means the concentration giving half of the maximal effect. In the case of `CN1CCOc2c(Cc3ccc(F)cc3)cc(C(=O)N[C@H]3CCCC[C@@H]3O)nc21` [Example 120, N-[(1S,2S)-2-Hydroxycyclohexyl]-8-(4-fluorobenzyl)-4-methyl-2H-pyrido[3,2-b][1,4]oxazine-6-carboxamide], in series [1] (intravenous (bolus), 1 mg/kg), the AUC(0-t) worked out at 593 ± 79 ng·h/mL, the clearance amounted to 28 ± 4 mL/min/kg and the half-life was 1.2 ± 0.3 h. In series [1] (oral (gavage), 3 mg/kg), this molecule showed an AUC(0-t) of 234 ± 76 ng·h/mL, a Cmax of 69 ± 12 ng/mL and a half-life of 3.5 ± 3.3 h. The F in series [1] was determined as 13 ± 4%. In addition, the EC50 on muscarinic M1 receptor [2] turned out to be 407 nM. Further, the Kp in series [3] was 1.37 ± 0.1. Further, in the series on Male Wistar rats [4] (10 mg/kg), the Inference entry is listed as “Active”; the “Exploration time mean ± S.E.M, Familiar object” value was 10.48 ± 1.02 s; the “Exploration time mean ± S.E.M, Novel object” value was 15.43 ± 1.23 s.
In series [1] (intravenous (bolus), 1 mg/kg), `Cn1ccc2c(Cc3ccnc(F)c3)cc(C(=O)N[C@H]3CCCC[C@@H]3O)nc21` [Example 1, N-[(1S,2S)-2-Hydroxycyclohexyl]-4-(2-fluoropyridin-4-ylmethyl)-1-methyl-1H-pyrrolo[2,3-b]pyridine-6-carboxamide] had an AUC(0-t) of 796 ± 41 ng·h/mL, a clearance of 34 ± 3 mL/min/kg and a half-life of 1.3 ± 0.3 h. In series [1] (oral (gavage), 3 mg/kg), this molecule showed an AUC(0-t) of 875 ± 215 ng·h/mL, a Cmax of 373 ± 53 ng/mL and a half-life of 1.3 ± 0.2 h. In series [1], this molecule yielded an F of 59 ± 14%. Further, the EC50 on muscarinic M1 receptor [2] turned out to be 1480 nM. Besides, the Kp in series [3] was 0.33 ± 0.02. Besides, in the series with Male Wistar rats [5], the “Procognitive effect in object recognition task” value is listed as “Procognitive effects were observed”. In addition, in the series on Male Wistar rats [4] (3 mg/kg), the Inference result is given as “Active”; the “Exploration time mean ± S.E.M, Familiar object” value stood at 12.67 ± 0.95 s; the “Exploration time mean ± S.E.M, Novel object” value amounted to 17.98 ± 1.77 s.
`N#CC1(c2ccccn2)CCN(Cc2cc(C(=O)O)c(=O)n3ccccc23)CC1` [PQCA, 1-{[4-cyano-4-(pyridine-2-yl)piperidin-1-yl]methyl}-4-oxo-4H-quinolizine-3-carboxylic acid]: in series [6] (Psychopharmacology, 2013, 225(1), 21-30), the “Efficacy in preclinical models of cognition” value is “efficacious”. Besides, the Gastrointestinal side effects result in series [6] (at doses equal to or less than a fivefold margin from the minimum effective dose required to improve cognition) was “no gastrointestinal side effects”. Also, at muscarinic M1 receptor [7], the “Selectivity for muscarinic M1 receptor over the other muscarinic receptor subtypes” value is “highly selective”.
Take `O=C(N[C@H]1CCCC[C@@H]1O)c1cc(Cc2ccc(F)cc2)c2c(n1)OCCO2` [Example 103, N-[(1S,2S)-2-Hydroxycyclohexyl]-8-(4-fluorobenzyl)-2,3-dihydro-[1,4]dioxino[2,3-b]pyridine-6-carboxamide]: in series [1] (intravenous (bolus), 1 mg/kg), the AUC(0-t) amounted to 791 ± 11 ng·h/mL, the clearance came out at 21 mL/min/kg and the half-life was 0.7 ± 0.1 h. In addition, in series [1] (oral (gavage), 3 mg/kg), the AUC(0-t) was found to be 1090 ± 102 ng·h/mL, the Cmax amounted to 825 ± 41 ng/mL and the half-life is 0.5 ± 0.2 h. Besides, the F in series [1] is 46 ± 4%. In addition, on muscarinic M1 receptor [2], the EC50 was 131 nM. Besides, the Kp in series [3] was determined as 0.63 ± 0.05. Besides, in the series on Male Wistar rats [4] (3 mg/kg), the Inference result is “Active”; the “Exploration time mean ± S.E.M, Familiar object” value is 12.20 ± 1.59 s; the “Exploration time mean ± S.E.M, Novel object” value turned out to be 19.17 ± 3.01 s.
In series [1] (intravenous (bolus), 1 mg/kg), `Cn1ccc2c(Cc3ccc(Cl)nc3)cc(C(=O)N[C@H]3CCCC[C@@H]3O)nc21` [Example 18, N-[(1S,2S)-2-Hydroxycyclohexyl]-4-(2-chloropyridin-5-ylmethyl)-1-methyl-1H-pyrrolo[2,3-b]pyridine-6-carboxamide] gave an AUC(0-t) of 853 ± 109 ng·h/mL, a clearance of 20 ± 3 mL/min/kg and a half-life of 1.3 ± 0.2 h. In series [1] (oral (gavage), 3 mg/kg), this molecule gave an AUC(0-t) of 2710 ± 769 ng·h/mL, a Cmax of 887 ± 74 ng/mL and a half-life of 3.6 ± 0.1 h. Also, the F in series [1] worked out at 106 ± 30%. On muscarinic M1 receptor [2], the EC50 was determined as 38 nM. In series [3], the Kp worked out at 0.27 ± 0.06. Further, in the series with Male Wistar rats [4] (10 mg/kg), the Inference result is listed as “Active”; the “Exploration time mean ± S.E.M, Familiar object” value was 8.00 ± 2.88 s; the “Exploration time mean ± S.E.M, Novel object” value came out at 14.38 ± 1.62 s.
